Patent publication US20220144838A1, “Compounds as Inhibitors of Macrophage Migration Inhibitory Factor” (NANJING IMMUNOPHAGE BIOTECH CO., LTD., priority 2019, published 2022)
Like-named read-outs stand apart in the source and are kept apart here.

Biological target: T1, MIF (Homo sapiens, UniProt P14174)
T1 sequence (P14174 2-115 limits assumed): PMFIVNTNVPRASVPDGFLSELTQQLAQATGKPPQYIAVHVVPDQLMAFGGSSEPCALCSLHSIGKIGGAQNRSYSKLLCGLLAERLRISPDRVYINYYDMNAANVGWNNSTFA
Experiment: MIF tautomerase assay using pHPP as substrate
Assay type: biochemical
Conditions: mean of multiple test results
In short: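 Mean pIC50 derived from initial rates (absorbance progress-curve slopes) of MIF-catalyzed ketonic-to-enolic pHPP conversion, read as enol–borate complex. Reactions contained 1.5 mM substrate and 3 nM enzyme (final), 200 mM boric acid stock buffer, BSA and CHAPS, pH 6.0.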

[1] = inhibition of the MIF enzyme in vitro, read-out: Tautomerase Inhibition pIC50 (converted)

## O=C(O)Cn1cnc2c(N3N=CC4C=CC=CC43)nc(N3CCN(c4ccncc4)CC3)nc21 (centres unmarked) [Example 49, 2-(6-(3a,7a-dihydro-1H-indazol-1-yl)-2-(4-(pyridin-4-yl)piperazin-1-yl)-9H-purin-9-yl)acetic acid]
[1]
  IC50: > 10000 nM

## Cc1ccncc1-n1cnc2c(N)nc(N3CCN(c4ccc(O)cc4)CC3)nc21 [Example 67, 4-(4-(6-amino-9-(4-methylpyridin-3-yl)-9H-purin-2-yl)piperazin-1-yl)phenol]
[1]
  IC50: 1000 to 9770 nM

## Oc1ccc(N2CCN(c3nc(N4CCNCC4)c4ncn(-c5ccncc5)c4n3)CC2)cc1 [Example 178, 4-(4-(6-(piperazin-1-yl)-9-(pyridin-4-yl)-9H-purin-2-yl)piperazin-1-yl)phenol]
[1]
  IC50: 100 to 977 nM

## CCCS(=O)(=O)NC(=O)Cn1cnc2c(-n3ncc4ccccc43)nc(N3CCN(c4ccc(O)cc4)CC3)nc21 [Example 56, 2-(2-(4-(4-hydroxyphenyl)piperazin-1-yl)-6-(1H-indazol-1-yl)-9H-purin-9-yl)-N-(propylsulfonyl)acetamide]
[1]
  IC50: 100 to 977 nM

## Nc1nc(N2CCN(c3ccc(O)cc3)CC2)nc2c1ncn2Cc1ccccc1 [Example 89, 4-(4-(6-amino-9-benzyl-9H-purin-2-yl)piperazin-1-yl)phenol]
[1]
  IC50: 1000 to 9770 nM

## O=C(O)Cn1cnc2c(-n3nnc4ccncc43)nc(N3CCN(c4ccc(O)cc4)CC3)nc21 [Example 121, 2-(6-(3H-[1,2,3]triazolo[4,5-c]pyridin-3-yl)-2-(4-(4-hydroxyphenyl)piperazin-1-yl)-9H-purin-9-yl)acetic acid]
[1]
  IC50: 10 to 97.7 nM

## CN(CCC(=O)O)c1nc(N2CCN(c3ccc(O)cc3)CC2)nc2c1ncn2-c1ccncc1 [Example 165, 3-((2-(4-(4-hydroxyphenyl)piperazin-1-yl)-9-(pyridin-4-yl)-9H-purin-6-yl)(methyl)amino)propanoic acid]
[1]
  IC50: 10 to 97.7 nM

## Oc1ccc(N2CCN(c3nc(NC4CCCC4)c4ncn(-c5cccnc5)c4n3)CC2)cc1 [Example 96, 4-(4-(6-(cyclopentylamino)-9-(pyridin-3-yl)-9H-purin-2-yl)piperazin-1-yl)phenol]
[1]
  IC50: 1000 to 9770 nM

## COC(=O)Cn1cnc2c(-n3ncc4ccccc43)nc(N3CCN(c4ccc(O)cc4)CC3)nc21 [Example 131, methyl 2-(2-(4-(4-hydroxyphenyl)piperazin-1-yl)-6-(1H-indazol-1-yl)-9H-purin-9-yl)acetate]
[1]
  IC50: 100 to 977 nM

## Nc1nc(N2CC(O)(c3cn[nH]c3)C2)nc2c1ncn2-c1ccncc1 [Example 199, 1-(6-amino-9-(pyridin-4-yl)-9H-purin-2-yl)-3-(1H-pyrazol-4-yl)azetidin-3-ol]
[1]
  IC50: > 10000 nM

## O=C(O)C1CCCN(c2nc(N3CCN(c4ccc(O)cc4)CC3)nc3c2ncn3-c2ccncc2)C1 (centres unmarked) [Example 170, 1-(2-(4-(4-hydroxyphenyl)piperazin-1-yl)-9-(pyridin-4-yl)-9H-purin-6-yl)piperidine-3-carboxylic acid]
[1]
  IC50: 10 to 97.7 nM

## CN(CC(=O)O)c1nc(N2CCN(c3ccccc3)CC2)nc2c1ncn2-c1ccncc1 [Example 180, N-methyl-N-(2-(4-phenylpiperazin-1-yl)-9-(pyridin-4-yl)-9H-purin-6-yl)glycine]
[1]
  IC50: > 10000 nM

## O=C(O)Cn1cnc2c(N3CCc4ccccc43)nc(N3CCN(c4ccc(O)cc4)CC3)nc21 [Example 31, 2-(2-(4-(4-hydroxyphenyl)piperazin-1-yl)-6-(indolin-1-yl)-9H-purin-9-yl)acetic acid]
[1]
  IC50: 100 to 977 nM

## CCC(CO)n1cnc2c(N3CCc4ccccc43)nc(N3CCN(c4ccc(O)cc4)CC3)nc21 (centres unmarked) [Example 30, 4-(4-(9-(1-hydroxybutan-2-yl)-6-(indolin-1-yl)-9H-purin-2-yl)piperazin-1-yl)phenol]
[1]
  IC50: 1000 to 9770 nM

## Nc1nc(N2CCN(c3ccc(O)cc3)CC2)nc2c1ncn2-c1ccc(C(=O)O)cc1 [Example 102, 4-(6-amino-2-(4-(4-hydroxyphenyl)piperazin-1-yl) 9H-purin-9-yl)benzoic acid]
[1]
  IC50: 1000 to 9770 nM

## Cc1nc(N2CCN(c3ccc(O)cc3)CC2)nc2c1ncn2-c1ccccc1 [Example 43, 4-(4-(6-methyl-9-phenyl-9H-purin-2-yl)piperazin-1-yl)phenol]
[1]
  IC50: 100 to 977 nM

## CCC(CO)N(C)c1nc(N2CCN(c3ccc(O)cc3)CC2)nc2c1ncn2-c1cccnc1 (centres unmarked) [Example 183, 4-(4-(6-((1-hydroxybutan-2-yl)(methyl)amino)-9-(pyridin-3-yl)-9H-purin-2-yl)piperazin-1-yl)phenol]
[1]
  IC50: > 10000 nM

## O=C(O)Cn1cnc2c(-n3nnc4ccccc43)nc(N3CCN(c4ccc(O)cc4)CC3)nc21 [Example 24, 2-(6-(1H-benzo[d][1,2,3]triazol-1-yl)-2-(4-(4-hydroxyphenyl)piperazin-1-yl)-9H-purin-9-yl)acetic acid]
[1]
  IC50: 10 to 97.7 nM

## CC(C(=O)O)n1cnc2c(-n3ncc4ccccc43)nc(N3CCN(c4ccc(O)cc4)CC3)nc21 (centres unmarked) [Example 124, 2-(2-(4-(4-hydroxyphenyl)piperazin-1-yl)-6-(1H-indazol-1-yl)-9H-purin-9-yl)propanoic acid]
[1]
  IC50: 10 to 97.7 nM

## CC(=O)NCCn1cnc2c(-n3ncc4ccccc43)nc(N3CCN(c4ccc(O)cc4)CC3)nc21 [Example 138, N-(2-(2-(4-(4-hydroxyphenyl)piperazin-1-yl)-6-(1H-indazol-1-yl)-9H-purin-9-yl)ethyl)acetamide]
[1]
  IC50: 100 to 977 nM

## Cc1nc(N2CCN(c3ccc(O)cc3)CC2)nc2c1ncn2CCO [Example 111, 4-(4-(9-(2-hydroxyethyl)-6-methyl-9H-purin-2-yl)piperazin-1-yl)phenol]
[1]
  IC50: 1000 to 9770 nM

## Cc1nc(N2CCC(O)(c3ccc(O)cc3)CC2)nc2c1ncn2CCCCC(=O)O [Example 160, 5-(2-(4-hydroxy-4-(4-hydroxyphenyl)piperidin-1-yl)-6-methyl-9H-purin-9-yl)pentanoic acid]
[1]
  IC50: > 10000 nM

## Nc1nc(N2CCCN(c3ccccc3)CC2)nc2c1ncn2-c1ccncc1 [Example 227, 2-(4-phenyl-1,4-diazepan-1-yl)-9-(pyridin-4-yl)-9H-purin-6-amine]
[1]
  IC50: > 10000 nM

## COc1ccc(-n2cnc3c(N)nc(N4CCN(c5ccc(O)cc5)CC4)nc32)c(OC)n1 [Example 84, 4-(4-(6-amino-9-(2,6-dimethoxypyridin-3-yl)-9H-purin-2-yl)piperazin-1-yl)phenol]
[1]
  IC50: 1000 to 9770 nM

## Oc1ccc(N2CCN(c3nc(-n4ncc5ccccc54)c4ncn(Cc5nnn[nH]5)c4n3)CC2)cc1 [Example 17, 4-(4-(9-((1H-tetrazol-5-yl)methyl)-6-(1H-indazol-1-yl)-9H-purin-2-yl)piperazin-1-yl)phenol]
[1]
  IC50: 100 to 977 nM

## O=C(O)Cn1cnc2c(-n3ncc4cc(CO)ccc43)nc(N3CCN(c4ccc(O)cc4)CC3)nc21 [Example 109, 2-(6-(5-(hydroxymethyl)-1H-indazol-1-yl)-2-(4-(4-hydroxyphenyl)piperazin-1-yl)-9H-purin-9-yl)acetic acid]
FIGS. 1-5, read-out: pIC50 MIF tautomerase activity (converted)
  IC50: ≤ 100 nM
[1]
  IC50: 10 to 97.7 nM

## N#Cc1ccc2c(cnn2-c2nc(N3CCN(c4ccc(O)cc4)CC3)nc3c2ncn3CC(=O)O)c1 [Example 52, 2-(6-(5-cyano-1H-indazol-1-yl)-2-(4-(4-hydroxyphenyl)piperazin-1-yl)-9H-purin-9-yl)acetic acid]
[1]
  IC50: 10 to 97.7 nM

## Oc1ccc(N2CCN(c3nc(N4CCCC4)c4ncn(-c5cccnc5)c4n3)CC2)cc1 [Example 92, 4-(4-(9-(pyridin-3-yl)-6-(pyrrolidin-1-yl)-9H-purin-2-yl)piperazin-1-yl)phenol]
[1]
  IC50: 1000 to 9770 nM

## O=C(O)Cn1cnc2c(-n3ncc4ccccc43)nc(N3CCN(c4ncc(O)cc4F)CC3)nc21 [Example 130, 2-(2-(4-(3-fluoro-5-hydroxypyridin-2-yl)piperazin-1-yl)-6-(1H-indazol-1-yl)-9H-purin-9-yl)acetic acid]
[1]
  IC50: > 10000 nM

## Nc1nc(N2CCC(O)(c3ccc(O)cc3)CC2)nc2c1ncn2-c1ccncc1 [Example 155, 1-(6-amino-9-(pyridin-4-yl)-9H-purin-2-yl)-4-(4-hydroxyphenyl)piperidin-4-ol]
[1]
  IC50: 10 to 97.7 nM

## Nc1nc(N2CCN(c3ccc(O)cc3)CC2)nc2c1ncn2-c1cccc(F)c1 [Example 72, 4-(4-(6-amino-9-(3-fluorophenyl)-9H-purin-2-yl)piperazin-1-yl)phenol]
[1]
  IC50: 1000 to 9770 nM

## OCCn1cnc2c(-n3ncc4ccccc43)nc(N3CC(O)(c4ccccc4)C3)nc21 [Example 225, 1-(9-(2-hydroxyethyl)-6-(1H-indazol-1-yl)-9H-purin-2-yl)-3-phenylazetidin-3-ol]
[1]
  IC50: 1000 to 9770 nM

## Cc1nc(N2CCN(c3ccc(O)cc3)CC2)nc2c1ncn2-c1cccc(Cl)c1 [Example 65, 4-(4-(9-(3-chlorophenyl)-6-methyl-9H-purin-2-yl)piperazin-1-yl)phenol]
[1]
  IC50: 1000 to 9770 nM

## NC(=O)Cn1cnc2c(-n3ncc4ccccc43)nc(N3CCN(c4ccc(O)cc4)CC3)nc21 [Example 47, 2-(2-(4-(4-hydroxyphenyl)piperazin-1-yl)-6-(1H-indazol-1-yl)-9H-purin-9-yl)acetamide]
[1]
  IC50: 100 to 977 nM

## O=C(O)Cn1cnc2c(-n3ncc4ccccc43)nc(N3CCN(c4ccc(O)cn4)CC3)nc21 [Example 21, 2-(2-(4-(5-hydroxypyridin-2-yl)piperazin-1-yl)-6-(1H-indazol-1-yl)-9H-purin-9-yl)acetic acid]
[1]
  IC50: 10 to 97.7 nM

## CC(C(=O)O)n1cnc2c(-n3cc4ccccc4n3)nc(N3CCN(c4ccc(O)cc4)CC3)nc21 (centres unmarked) [Example 126, 2-(2-(4-(4-hydroxyphenyl)piperazin-1-yl)-6-(2H-indazol-2-yl)-9H-purin-9-yl)propanoic acid]
[1]
  IC50: 100 to 977 nM

## N#Cc1ccc(-n2cnc3c(N)nc(N4CCN(c5ccc(O)cc5)CC4)nc32)cn1 [Example 86, 5-(6-amino-2-(4-(4-hydroxyphenyl)piperazin-1-yl)-9H-purin-9-yl)picolinonitrile]
[1]
  IC50: 100 to 977 nM
